{"source": "patent US10441620B2", "about": "“Method for protection of bladder from damage” (Wellstrong Biotech Co., Ltd., priority 2016, dated 2019)", "experiment": "CUPRAC assay for total antioxidants", "conditions": "absorbance at 450 nm", "procedure": "The CUPRAC assay was utilized to determine the total antioxidant capacity. This assay relies on the electron donating capabilities of antioxidants to reduce the copper ion. The CUPRAC working solution consisted of 10 mM copper (II) chloride dihydrate, 1M ammonium acetate, and 7.5 mM neocuproine. 0.15 mL of the above three solutions were added to 0.15 mL of each sample and allowed to react for 30 minutes at room temperature, after which the absorbance was read at 450 nm in a Hitachi U-2001 spectrophotometer.", "data": [{"smiles": "O=C1O[C@H]([C@@H](O)CO)C(O)=C1O", "note": "[ascorbic acid]", "values": [{"measurement": "total antioxidant activity (antioxidant value of standard curve)", "value": "27±1.7 mg Ascorbic acid per mOD optical density"}]}]}
